US20060287247A1, “Halogen-substituted thienyl compounds” (priority 2001, published 2006)

Experiments:
E. faecalis ATCC 29212 = experiment: NCCLS broth microdilution MIC; format: cell-based, Enterococcus faecalis; details: B = E. faecalis ATCC 29212
Experimental: (§1) Compounds according to this invention were screened for their in vitro activities against selected species of bacteria and fungi. The minimal inhibition concentration (MIC) of these compounds was determined using the National Committee for Clinical Laboratory Standards (NCCLS) broth microdilution assay in microtiter plates, as set forth in: (1) the guidelines of the National Committee for Clinical Laboratory Standards (NCCLS) Document M7-A4 (NCCLS, 1997); (2) the guidelines of the National Committee for Clinical Laboratory Standards (NCCLS) Document M11-A4 (NCCLS, 1997); and (3) the guidelines and reference method of the National Committee for Clinical Laboratory Standards (NCCLS) Document M27-T (NCCLS, 1995). For antifungal essays, the method recommended in Murray, P R., 1995 Manual of Clinical Microbiology (ASM Press, Washington, D.C.), was employed. […]

S. pneumoniae ATCC 49619 = experiment: NCCLS broth microdilution MIC; format: cell-based, Streptococcus pneumoniae; details: F = S. pneumoniae ATCC 49619
Experimental: as §1

C. albicans ATCC 38247 = experiment: NCCLS broth microdilution MIC (antifungal); format: cell-based; details: E = C. albicans ATCC 38247
Experimental: as §1

B. cereus ATCC 11778 = experiment: NCCLS broth microdilution MIC; format: cell-based, Bacillus cereus; details: C = B. cereus ATCC 11778
Experimental: as §1

S. aureus ATCC 29213 = experiment: NCCLS broth microdilution MIC; format: cell-based, Staphylococcus aureus; details: A = S. aureus ATCC 29213
Experimental: as §1

E. coli ATCC 25922 = experiment: NCCLS broth microdilution MIC; format: cell-based; details: D = E. coli ATCC 25922
Experimental: as §1

5′-AAAAAGCAAAAA-3′ = format: binding; details: DNA sequence 5′-AAAAAGCAAAAA-3′; pH 7.0, 22° C.
Experimental: (§2) A number of compounds according to this invention were screened for their ability to bind to three DNA sites, using DNase I footprinting. Generally, the procedure described in Dervan, WO 98/50582 (1998), was followed.
(§3) A plasmid was prepared by hybridizing two sets of 5′-phosphorylated complementary oligonucleotides, one set being
(§4) The target sites and their complements are identified in bold underline.
(§5) The resulting duplexes were ligated to the large pUC19 AvaI/SalI restriction fragment. The 3′-P32 end-labeled EcoRI/PvuII fragment was prepared by digesting the plasmid with EcoRI and PvuII with simultaneous fill-in using Sequenase v. 2.0, [alpha-P32]-deoxyadenosine-5′-triphosphate, and [alpha-P32]-thymidine-5′-triphosphate, and isolating the cloned fragment by nondenaturing gel electrophoresis. Standard methods were used for all DNA manipulations, including A and G sequencing. See, e.g., Maxam et al., Methods Enzymol., 1980, 65, 499-560; Iverson et al., Methods Enzymol., 1987, 15, 7823-7830; and Sambrook et al., 1989, Molecular Cloning, 2nd ed., Cold Spring Harbor Laboratory Press: Cold Spring Harbor, N.Y.
(§6) Quantitative DNase I footprint titration experiments were carried out as described previously (Dervan, WO 98/50582, 1998, “Dervan '582”) with the following changes. All reactions were carried out in a total volume of 400 μL, with polyamide stock solution or water added to 15,000 cpm radiolabeled restriction fragment affording final solution conditions of 10 mM Tris.HCl, 10 mM KCl, 10 mM MgCl2, 5 mM CaCl2, pH 7.0 and 0.01 nM, 0.1 nM, 1.0 nM, 10.0 nM polyamide or no polyamide for reference lanes. The polyamides were allowed to equilibrate at 22° C. for 16 hr. Footprinting reactions were initiated with addition of 10 μL of a DNase I stock solution (at the appropriate concentration to give ˜50% intact DNA) containing 1 mM DTT and allowed to proceed for 7 min at 22° C. The reactions were stopped, ethanol precipitated, resuspended in loading buffer, heat denatured, and placed on ice as described in Dervan '582. The reaction products were separated on a precast 8% polyacrylamide denaturing sequencing Castaway gel with 32 preformed wells from Stratagene in 1× TBE at 2000 V. Gels were dried according to the manufacturer's instructions and exposed to a storage phosphor screen (Molecular Dynamics). Quantitation and data analysis were carried out as described in Dervan '582.

5′-AAAAAGACAAAAA-3′ = format: binding; details: DNA sequence 5′-AAAAAGACAAAAA-3′; pH 7.0, 22° C.
Experimental: as §2, §3, §4, §5, §6

5′-AAAAAGTACAAAAA-3′ = format: binding; details: DNA sequence 5′-AAAAAGTACAAAAA-3′; pH 7.0, 22° C.
Experimental: as §2, §3, §4, §5, §6

Row | SMILES | Minimum Inhibitory Concentration (MIC) (E. faecalis ATCC 29212) | Minimum Inhibitory Concentration (MIC) (S. pneumoniae ATCC 49619) | Minimum Inhibitory Concentration (MIC) (C. albicans ATCC 38247) [µg/mL] | Minimum Inhibitory Concentration (MIC) (B. cereus ATCC 11778) | Minimum Inhibitory Concentration (MIC) (S. aureus ATCC 29213) | Minimum Inhibitory Concentration (MIC) (E. coli ATCC 25922) [µg/mL] | Equilibrium Association Constant (Ka) (5′-AAAAAGCAAAAA-3′) | Equilibrium Association Constant (Ka) (5′-AAAAAGACAAAAA-3′) | Equilibrium Association Constant (Ka) (5′-AAAAAGTACAAAAA-3′)
1 | Cn1cc(NC(=O)c2cc(NC(=O)CCNC(=O)c3cc(NC(=O)c4cc(NC(=O)c5cc(Br)c(Br)s5)cn4C)cn3C)cn2C)cc1C(=O)NCCC(=O)NCC(C)(C)CN [Id-4] | +++ (+++ = MIC ≦4) | +++ (+++ = MIC ≦4) | >32 | +++ (+++ = MIC ≦4) | +++ (+++ = MIC ≦4) | >32 | 5e+09 M⁻¹ | 1e+10 M⁻¹ | 5e+11 M⁻¹
2 | Cn1cc(NC(=O)c2cc(NC(=O)CCNC(=O)c3cc(NC(=O)c4cc(NC(=O)c5ccc(Br)s5)cn4C)cn3C)cn2C)cc1C(=O)NCCC(=O)NCCCCCCN [Id-21] | +++ (+++ = MIC ≦4) | +++ (+++ = MIC ≦4) | >32 | +++ (+++ = MIC ≦4) | >32 µg/mL | >32 | 5e+10 M⁻¹ | 1e+10 M⁻¹ | ≧1 × 10^11 M^−1
3 | CCN(CC)CCNC(=O)CCNC(=O)c1cc(NC(=O)c2cc(NC(=O)CCNC(=O)c3cc(NC(=O)c4cc(NC(=O)c5ccc(Br)s5)cn4C)cn3C)cn2C)cn1C [Id-22] | +++ (+++ = MIC ≦4) | +++ (+++ = MIC ≦4) | >32 | +++ (+++ = MIC ≦4) | >32 µg/mL | >32 | 2e+08 M⁻¹ | 2e+08 M⁻¹ | ≧1 × 10^11 M^−1

The next lines start with results.

Row | Minimum Inhibitory Concentration (MIC) (E. faecalis ATCC 29212) | Minimum Inhibitory Concentration (MIC) (S. pneumoniae ATCC 49619) | Minimum Inhibitory Concentration (MIC) (C. albicans ATCC 38247) [µg/mL] | Minimum Inhibitory Concentration (MIC) (B. cereus ATCC 11778) | Minimum Inhibitory Concentration (MIC) (S. aureus ATCC 29213) | Minimum Inhibitory Concentration (MIC) (E. coli ATCC 25922) [µg/mL] | SMILES | Equilibrium Association Constant (Ka) (5′-AAAAAGCAAAAA-3′) | Equilibrium Association Constant (Ka) (5′-AAAAAGACAAAAA-3′) | Equilibrium Association Constant (Ka) (5′-AAAAAGTACAAAAA-3′)
4 | +++ (+++ = MIC ≦4) | +++ (+++ = MIC ≦4) | >32 | +++ (+++ = MIC ≦4) | >32 µg/mL | >32 | CC(C)N(CCNC(=O)CCNC(=O)c1cc(NC(=O)c2cc(NC(=O)CCNC(=O)c3cc(NC(=O)c4cc(NC(=O)c5ccc(Br)s5)cn4C)cn3C)cn2C)cn1C)C(C)C [Id-19] | 5e+09 M⁻¹ | 5e+09 M⁻¹ | ≧1 × 10^11 M^−1
5 | +++ (+++ = MIC ≦4) | +++ (+++ = MIC ≦4) | >32 | +++ (+++ = MIC ≦4) | +++ (+++ = MIC ≦4) | >32 | CN(C)CCCNC(=O)CCNC(=O)c1cc(NC(=O)c2cc(NC(=O)CCNC(=O)c3cc(NC(=O)c4cc(NC(=O)c5cc(Br)c(Br)s5)cn4C)cn3C)cn2C)cn1C [Id-1] | ≧1 × 10^11 M^−1 | ≧1 × 10^11 M^−1 | ≧1 × 10^11 M^−1
6 | +++ (+++ = MIC ≦4) | +++ (+++ = MIC ≦4) | >32 | +++ (+++ = MIC ≦4) | +++ (+++ = MIC ≦4) | >32 | CC(C)N(CCNC(=O)CCNC(=O)c1cc(NC(=O)c2cc(NC(=O)CCNC(=O)c3cc(NC(=O)c4cc(NC(=O)c5cc(Br)c(Br)s5)cn4C)cn3C)cn2C)cn1C)C(C)C [Id-3] | 5e+08 M⁻¹ | 5e+08 M⁻¹ | 5e+09 M⁻¹
